In EPA's ToxValDB 9.5:
Values joined by “and” are separate entries in the source; they are usually repeats but may differ in a detail not shown here. Equal values may be shown once.

Legend:
Rattus norvegicus [1] = details: oral
Rattus norvegicus [2] = tested on: Rattus norvegicus
Rattus norvegicus [3] = details: oral, gavage; for LD50: acute
[4] = acute, duration: 4 hours, inhalation, M, Bone Marrow: Bone Marrow Histopathology + Spleen: Spleen Histopathology + Whole Body: Clinical Signs
[5] = reproduction developmental, duration: 9 days, inhalation, F, generation: P0, P0: Whole Body: Maternal Body Weight, Initial
[6] = reproduction developmental, duration: 9 days, inhalation, M/F, generation: F1, F1: Vertebra: Thoracic Centrum, Dipartite Ossification
[7] = reproduction developmental, duration: 14 days, oral, gavage, F, Crj:CD, generation: P0, P0: Uterus: >=6 Days of Diestrus + P0: Uterus: Estrous Cycle, Length + P0: Whole Body: Delivery Index + P0: Whole Body: Length of Gestation…
[8] = reproduction developmental, duration: 14 days, oral, gavage, M/F, Crj:CD, generation: F1, F1: Whole Body: Live Birth Index + F1: Whole Body: Live Pups Born + F1: Whole Body: Survival + F1: Whole Body: Viability Index
[9] = reproduction developmental, duration: 42 days, oral, gavage, M, Crj:CD, generation: P0, P0: Whole Body: Percent Mating
[10] = short-term, duration: 14 days, oral, gavage, F, Crj:CD, Liver: Cholesterol (CHOL), Total
[11] = subchronic, duration: 42 days, oral, gavage, M, Crj:CD, Adrenal: Adrenal Gland Weight, Absolute + Liver: Aspartate Aminotransferase (AST) + Spleen: Spleen Weight, Relative

## OC(C(F)(F)F)C(F)(F)F [2H-Perfluoro-2-propanol]
Rattus norvegicus [1]; subchronic, gavage, M, Sprague-Dawley, Clinical Observation: Prone position Lateral position Locomotor activity decrease + Functional Observational Battery: Prone position Lateral…
  NOEL: 10 mg/kg-day
Rattus norvegicus [2]; [4]
  LOAEL: 5500 mg/m3
  NOAEL: 1370 mg/m3 and 1380 mg/m3
Rattus norvegicus [2]; acute, duration: 4 hours, inhalation, M, Brain: Brain Histopathology + Brain: Brain Pathology + Duodenum: Duodenum Histopathology + Heart: Heart Histopathology + Kidney: Kidney …
  LOAEL: 1370 mg/m3 and 1380 mg/m3
Rattus norvegicus [2]; developmental, duration: 9 days, inhalation, M/F, generation: F1, F1: Rib: Rib, Wavy + F1: Skin: Petechial Hemorrhages + F1: Skin: Subcutaneous Hematoma, Small + F1: Skull: Hyoid Body, Unossified + F1: …
  NOAEL: 1380 mg/m3 and 1370 mg/m3
Rattus norvegicus [2]; reproduction developmental, duration: 9 days, inhalation, F, generation: P0, P0: Ovary: Corpora Lutea + P0: Uterus: Mean Implantations/Litter + P0: Uterus: Resorptions, Early + P0: Uterus: Resorptions, Late + P0: …
  NOAEL: 1380 mg/m3 and 1370 mg/m3
Rattus norvegicus [2]; [5]
  LOAEL: 1380 mg/m3 and 1370 mg/m3
  NOAEL: 207 mg/m3 and 206 mg/m3
Rattus norvegicus [2]; reproduction developmental, duration: 9 days, inhalation, M/F, generation: F1, F1: Kidney: Hydronephrosis + F1: Rib: 14th Rudimentary Rib
  LOAEL: 207 mg/m3 and 206 mg/m3
Rattus norvegicus [2]; [6]
  LOAEL: 1380 mg/m3 and 1370 mg/m3
  NOAEL: 207 mg/m3 and 206 mg/m3
Rattus norvegicus [2]; reproduction developmental, duration: 14 days, oral, gavage, F, Crj:CD, generation: F1, F1: Whole Body: Pup Weight Relative to Litter
  LOAEL: 300 mg/kg-day
Rattus norvegicus [2]; reproduction developmental, duration: 14 days, oral, gavage, F, Crj:CD, generation: P0, P0: Ovary: Corpora Lutea + P0: Uterus: Estrous Cycle, Irregular + P0: Uterus: Estrous Stages/ 21 Days + P0: Uterus: Implantation + P0: …
  NOAEL: 300 mg/kg-day
Rattus norvegicus [2]; [7]
  LOAEL: 300 mg/kg-day
  NOAEL: 60 mg/kg-day
Rattus norvegicus [2]; [8]
  LOAEL: 300 mg/kg-day
  NOAEL: 60 mg/kg-day
Rattus norvegicus [2]; reproduction developmental, duration: 14 days, oral, gavage, M/F, Crj:CD, generation: F1, F1: Whole Body: Male Pups per Pups Sexed + F1: Whole Body: Male Pups per Pups Sexed, Live Offspring
  NOAEL: 300 mg/kg-day
Rattus norvegicus [2]; reproduction developmental, duration: 14 days, oral, gavage, M, Crj:CD, generation: F1, F1: Whole Body: Pup Weight Relative to Litter
  LOAEL: 300 mg/kg-day
Rattus norvegicus [2]; reproduction developmental, duration: 42 days, oral, gavage, M, Crj:CD, generation: P0, P0: Whole Body: Days of Cohabitation + P0: Whole Body: Fertility Index
  NOAEL: 300 mg/kg-day
Rattus norvegicus [2]; [9]
  LOAEL: 300 mg/kg-day
  NOAEL: 60 mg/kg-day
Rattus norvegicus [2]; short-term, duration: 14 days, oral, gavage, F, Crj:CD, Adrenal: Adrenal Gland Histopathology + Adrenal: Adrenal Gland Weight, Absolute + Adrenal: Adrenal Gland Weight, Relative + Basophils + …
  NOAEL: 300 mg/kg-day
Rattus norvegicus [2]; short-term, duration: 14 days, oral, gavage, F, Crj:CD, Calcium (CA) + Central Nervous System: CNS Depression + Liver: Hepatocellular Hypertrophy + Liver: Liver Weight, Relative, Recovery + …
  LOAEL: 300 mg/kg-day
Rattus norvegicus [2]; short-term, duration: 14 days, oral, gavage, F, Crj:CD, Calcium (CA) + Central Nervous System: CNS Depression + Liver: Hepatocellular Hypertrophy + Peripheral Nervous System: Aerial Righting …
  NOAEL: 60 mg/kg-day
Rattus norvegicus [2]; [10]
  LOAEL: 60 mg/kg-day
  NOAEL: 10 mg/kg-day
Rattus norvegicus [2]; subchronic, duration: 42 days, oral, gavage, M, Crj:CD, Adrenal: Adrenal Gland Histopathology + Adrenal: Adrenal Gland Weight, Absolute, Recovery + Adrenal: Adrenal Gland Weight, Relative, …
  NOAEL: 300 mg/kg-day
Rattus norvegicus [2]; [11]
  LOAEL: 60 mg/kg-day
  NOAEL: 10 mg/kg-day
Rattus norvegicus [2]; subchronic, duration: 42 days, oral, gavage, M, Crj:CD, Adrenal: Adrenal Gland Weight, Relative
  LOAEL: 10 mg/kg-day
Rattus norvegicus [2]; subchronic, duration: 42 days, oral, gavage, M, Crj:CD, Blood: Platelet Count (PLT) + Blood: Reticulocytes + Brain: Brain Weight, Absolute + Brain: Brain Weight, Absolute, Recovery + Central …
  LOAEL: 300 mg/kg-day
Rattus norvegicus [2]; subchronic, duration: 42 days, oral, gavage, M, Crj:CD, Blood: Platelet Count (PLT) + Blood: Reticulocytes + Brain: Brain Weight, Absolute + Central Nervous System: CNS Depression + Kidney: Urea …
  NOAEL: 60 mg/kg-day

## Cc1ccc(Cl)cc1 [4-Chlorotoluene]
Rattus norvegicus [3]; Sprague-Dawley
  LD50: 2350 mg/kg and 1900 mg/kg
Rattus norvegicus [1]; short-term, duration: 29 days, gavage, M/F, Wistar, Deaths + Clinical Observation: Rough fur Reduced condition Difficulties in breathing Distended abdomen Salivation + Body Weight Changes: …
  NOAEL: 200 mg/kg-day
Rattus norvegicus [1]; subchronic, duration: 90 days, gavage, M/F, Sprague-Dawley, Deaths + Clinical Observation: Languid behavior Prostration Sensitivity to touch Tremor Epistaxis Wheezing Dyspnea + Body Weight Changes: …
  NOAEL: 200 mg/kg-day

## Cc1cc(S(=O)(=O)[O-])c(N=Nc2c([O-])c(C(=O)O)cc3ccccc23)cc1Cl.[Ca+2] [C.I. Pigment Red 48, calcium salt (1:1)]
Rattus norvegicus [3]
  LD50: ≥ 5000 mg/kg
Rattus norvegicus [1]; subchronic, gavage, M, Sprague-Dawley, Functional Observational Battery: Grip strength of hind limbs + Relative Organ Weight: Kidneys increase + Histopathology: Kidneys/ proximal …
  NOEL: 200 mg/kg-day

## O=C1N(CO)C(O)C(O)N1CO (stereo not drawn) [Dimethyloldihydroxyethyleneurea]
Rattus norvegicus [3]; developmental, duration: 10 days, Wistar
  NOAEL: 640 mg/kg-day
Rattus norvegicus [3]; reproduction developmental, duration: 14 days, Fischer 344
  NOAEL: 4000 mg/kg-day
Rattus norvegicus [1]; subchronic, duration: 90 days, gavage, M/F, Fischer 344, Clinical Observation: Yellow discoloration, abdominal/anogenital region Soft stool Hypoactivity Grasping reflex decrease, Hypothermic …
  NOAEL: 3000 mg/kg-day

## CC(C)(C)c1cc(O)ccc1O [tert-Butylhydroquinone]
Rattus norvegicus [1]; subchronic, duration: 13 weeks, diet, F, Fischer 344, Clinical Observation: Hair discoloration + Body Weight Changes: decrease + Food Consumption: decrease + Blood Chemistry: Bile acid increase…
  NOEL: 200 mg/kg-day
Rattus norvegicus [1]; subchronic, duration: 13 weeks, diet, M/F, Fischer 344, Clinical Observation: Hair discoloration + Body Weight Changes: decrease + Food Consumption: decrease + Blood Chemistry: Bile acid increase…
  NOEL: < 240 mg/kg-day
